Source: ChEMBL document CHEMBL4376892, “Identification of Parthenolide Dimers as Activators of Pyruvate Kinase M2 in Xenografts of Glioblastoma Multiforme in Vivo” (J Med Chem, 2020)
Activity calls are given as the source filed them. The calls are words filed in the database; no cut-off is given here.

Key:
[1] = tested on: SF-126; assay: Antiproliferative activity against human SF126 cells assessed as reduction in cell viability after 72 hrs by MTT assay; format: functional, cell-based; settings: SF-126, 72 h
[2] = tested on: U-251; assay: Antiproliferative activity against human U251 cells assessed as reduction in cell viability after 72 hrs by MTT assay; format: functional, cell-based; settings: U-251, 72 h
[3] = tested on: A549; assay: Antiproliferative activity against human A549 cells assessed as reduction in cell viability after 72 hrs by MTT assay; format: functional, cell-based; settings: A549, 72 h
[4] = tested on: U-118-MG; assay: Inhibition of colony formation in human U118MG cells after 7 days; format: functional, cell-based
[5] = tested on: U-87 MG; assay: Induction of apoptosis in human U87 cells after 48 hrs by Annexin-V-FITC/PI-staining based flow cytometric analysis; format: functional, cell-based; settings: U-87MG ATCC
[6] = tested on: U-118-MG; assay: Induction of apoptosis in human U118MG cells after 48 hrs by Annexin-V-FITC/PI-staining based flow cytometric analysis; format: functional, cell-based
[7] = tested on: U-118-MG; assay: Antimetastatic activity against human U118MG cells assessed as reduction in cell invasion at 2 uM after 24 hrs by crystal violet staining based transwell assay; format: functional
[8] = tested on: U-118-MG; assay: Effect on total PKM2 protein expression in human U118MG cells at 0.5 to 2 uM after 48 hrs by Western blot analysis; format: functional, cell-based
[9] = target: T1, Pyruvate kinase PKM (Homo sapiens, UniProt P14618); assay: Induction of tetrameric formation of recombinant human N-terminal 6His-tagged PKM2 expressed in Escherichia coli BL21 cells assessed as increase in particle size at 10 uM after 30 mins by dynamic laser light scattering analysis
T1 sequence (P14618 2-531 limits assumed): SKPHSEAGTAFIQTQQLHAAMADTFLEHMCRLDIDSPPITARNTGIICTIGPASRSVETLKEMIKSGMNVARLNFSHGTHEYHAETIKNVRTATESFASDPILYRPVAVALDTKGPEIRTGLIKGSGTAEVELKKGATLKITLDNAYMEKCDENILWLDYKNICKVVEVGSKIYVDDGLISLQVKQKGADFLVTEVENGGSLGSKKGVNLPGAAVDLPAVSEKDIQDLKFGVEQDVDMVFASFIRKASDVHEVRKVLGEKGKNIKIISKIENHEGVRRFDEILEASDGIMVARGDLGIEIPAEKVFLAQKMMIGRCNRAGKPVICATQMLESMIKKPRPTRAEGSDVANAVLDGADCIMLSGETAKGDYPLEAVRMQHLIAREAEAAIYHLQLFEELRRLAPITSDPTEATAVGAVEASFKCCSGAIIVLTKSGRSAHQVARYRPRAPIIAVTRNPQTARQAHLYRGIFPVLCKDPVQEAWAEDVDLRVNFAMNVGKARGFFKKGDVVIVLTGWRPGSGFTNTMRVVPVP

[10] = tested on: U-87MG ATCC; assay: Effect on P65 protein expression in human U87 cells at 0.2 to 0.5 uM after 48 hrs by Western blot analysis; format: functional, cell-based
[11] = tested on: U-118-MG; assay: Effect on IKK-beta protein expression in human U118MG cells at 0.2 to 0.5 uM after 48 hrs by Western blot analysis; format: functional, cell-based
[12] = target: T1, Pyruvate kinase PKM; assay: Activation of PKM2 in human U87 cells assessed as inhibition of STAT3 protein expression at 1 to 2 uM after 24 hrs by Western blot analysis; format: cell-based; settings: U-87MG ATCC
[13] = target: T1, Pyruvate kinase PKM; assay: Activation of PKM2 in human U118MG cells assessed as reduction in vimentin expression at 1 to 2 uM after 24 hrs by Western blot analysis; format: cell-based
[14] = target: T1, Pyruvate kinase PKM; assay: Activation of PKM2 in human U118MG cells assessed as reduction in bcl2 expression at 1 to 2 uM after 48 hrs by Western blot analysis; format: cell-based
[15] = target: T1, Pyruvate kinase PKM; assay: Activation of PKM2 in human U118MG cells assessed as reduction in bcl-xl expression at 1 to 2 uM after 48 hrs by Western blot analysis; format: cell-based
[16] = target: T1, Pyruvate kinase PKM; assay: Activation of PKM2 in human U87 cells assessed as inhibition of STAT3 protein expression at 5 uM after 48 hrs by Western blot analysis; format: cell-based; settings: U-87MG ATCC
[17] = tested on: U-87MG ATCC; assay: Induction of PDK4 protein expression in human U87 cells at 5 uM after 48 hrs by Western blot analysis; format: functional, cell-based
[18] = tested on: U-118-MG; assay: Antiproliferative activity against human U118MG cells transfected with lentivirus expressing shNC assessed as reduction in cell viability after 24 hrs by MTT assay; format: functional, cell-based
[19] = tested on: U-87 MG; assay: Induction of apoptosis in human U87 cells transfected with lentivirus expressing shNC assessed as viable cells after 48 hrs by Annexin-V-FITC/PI-staining based flow cytometric analysis (reference value: 98.5%); format: functional, U-87MG ATCC
[20] = tested on: U-87 MG; assay: Induction of apoptosis in human U87 cells transfected with lentivirus expressing shNC assessed as early apoptotic cells after 48 hrs by Annexin-V-FITC/PI-staining based flow cytometric analysis (reference value: 0.588%); format: functional, U-87MG ATCC
[21] = tested on: U-87 MG; assay: Induction of apoptosis in human U87 cells transfected with lentivirus expressing shNC assessed as necrotic cells after 48 hrs by Annexin-V-FITC/PI-staining based flow cytometric analysis (reference value: 0.319%); format: functional, U-87MG ATCC
[22] = tested on: U-87 MG; assay: Induction of apoptosis in human U87 cells transfected with lentivirus expressing shPKM2 assessed as viable cells after 48 hrs by Annexin-V-FITC/PI-staining based flow cytometric analysis (reference value: 97.3%); format: functional, U-87MG ATCC
[23] = tested on: U-87 MG; assay: Induction of apoptosis in human U87 cells transfected with lentivirus expressing shPKM2 assessed as necrotic cells after 48 hrs by Annexin-V-FITC/PI-staining based flow cytometric analysis (reference value: 0.580%); format: functional, U-87MG ATCC
[24] = tested on: U-118-MG; assay: Induction of apoptosis in human U118MG cells transfected with lentivirus expressing shNC assessed as early apoptotic cells after 48 hrs by Annexin-V-FITC/PI-staining based flow cytometric analysis (reference value: 2.56%); format: functional
[25] = tested on: U-118-MG; assay: Induction of apoptosis in human U118MG cells transfected with lentivirus expressing shNC assessed as late apoptotic cells after 48 hrs by Annexin-V-FITC/PI-staining based flow cytometric analysis (reference value: 0.334%); format: functional
[26] = tested on: U-118-MG; assay: Induction of apoptosis in human U118MG cells transfected with lentivirus expressing shPKM2 assessed as early apoptotic cells after 48 hrs by Annexin-V-FITC/PI-staining based flow cytometric analysis (reference value: 2%); format: functional
[27] = tested on: U-118-MG; assay: Induction of apoptosis in human U118MG cells transfected with lentivirus expressing shPKM2 assessed as late apoptotic cells after 48 hrs by Annexin-V-FITC/PI-staining based flow cytometric analysis (reference value: 0.221%); format: functional
[28] = tested on: U-118-MG; assay: Induction of apoptosis in human U118MG cells assessed as late apoptotic cells after 48 hrs by Annexin-V-FITC/PI-staining based flow cytometric analysis (reference value: 0.616%); format: functional
[29] = tested on: U-118-MG; assay: Induction of apoptosis in human U118MG cells assessed as necrotic cells after 48 hrs by Annexin-V-FITC/PI-staining based flow cytometric analysis (reference value: 1.37%); format: functional
[30] = tested on: U-87 MG; assay: Induction of apoptosis in human U87 cells assessed as viable cells after 48 hrs by Annexin-V-FITC/PI-staining based flow cytometric analysis (reference value: 93.8%); format: functional, U-87MG ATCC
[31] = tested on: U-87 MG; assay: Induction of apoptosis in human U87 cells assessed as early apoptotic cells after 48 hrs by Annexin-V-FITC/PI-staining based flow cytometric analysis (reference value: 4.91%); format: functional, U-87MG ATCC
[32] = tested on: U-87 MG; assay: Induction of apoptosis in human U87 cells assessed as late apoptotic cells after 48 hrs by Annexin-V-FITC/PI-staining based flow cytometric analysis (reference value: 1.22%); format: functional, U-87MG ATCC
[33] = tested on: U-87 MG; assay: Induction of apoptosis in human U87 cells assessed as necrotic cells after 48 hrs by Annexin-V-FITC/PI-staining based flow cytometric analysis (reference value: 0.1%); format: functional, U-87MG ATCC
[34] = target: T1, Pyruvate kinase PKM; assay: Binding affinity to recombinant human N-terminal 6His-tagged PKM2 expressed in Escherichia coli BL21 cells assessed as increase in thermal stability of enzyme at melting temperature of 42 to 56 degC at 10 to 50 uM by western blot analysis
[35] = tested on: U-87 MG; assay: Antimigratory activity against human U87 cells transfected with lentivirus expressing shNC at 2 uM incubated for 48 hrs by crystal violet staining based transwell assay; format: functional, cell-based; settings: U-87MG ATCC
[36] = tested on: U-118-MG; assay: Antimigratory activity against human U118MG cells transfected with lentivirus expressing shNC at 2 uM incubated for 48 hrs by crystal violet staining based transwell assay; format: functional, cell-based
[37] = tested on: U-118-MG; assay: Antiinvasive activity against human U118MG cells transfected with lentivirus expressing shNC at 2 uM incubated for 48 hrs by crystal violet staining based transwell assay; format: functional, cell-based

IC50 [2]: 7.14 µM
IC50 [3]: 11.9 µM
Activity [9]: Active
Activity [12]: Active
Activity [13]: Active
Activity [14]: Active
Activity [15]: Active
Activity [16]: Active
Activity [34]: Active
SMILES: C=C1C(=O)O[C@H]2[C@H]1CC/C(C(=O)OCCOCCOC(=O)/C1=C/CC[C@@]3(C)O[C@H]3[C@H]3OC(=O)C(=C)[C@@H]3CC1)=C\CC[C@@]1(C)O[C@@H]21
IC50 [1]: 7.49 µM
inhibition [4]: Dose-dependent effect
Activity [5]: Dose-dependent effect
Activity [6]: Dose-dependent effect
Activity [7]: Active
Activity [8]: inactive
Activity [10]: inactive
Activity [11]: inactive
Activity [17]: Active
IC50 [18]: 1.04 µM
Activity [19]: 85.1%
Activity [20]: 9.99%
Activity [21]: 1.24%
Activity [22]: 93%
Activity [23]: 0.539%
Activity [24]: 47.1%
Activity [25]: 16.4%
Activity [26]: 5.78%
Activity [27]: 1.32%
Activity [28]: 42.1%
Activity [29]: 6.01%
Activity [30]: 72.5%
Activity [31]: 24.4%
Activity [32]: 2.82%
Activity [33]: 0.256%
Activity [35]: Active
Activity [36]: Active
Activity [37]: Active
